In patent EP4778929A1, “NOVEL TYPE I TOPOISOMERASE INHIBITOR, AND PREPARATION METHOD THEREFOR AND USE THEREOF” (priority 2023, dated 2025):

Legend:
[1] = tested on: Human colon cancer HCT116 cells; experiment: Subcutaneous xenograft model of human colon cancer HCT-116 cells; format: in vivo, BALB/c nude mice; conditions: day 21 post-treatment, 5 mg/kg, IV, BIW×3W
Experimental: Test Example 4. Pharmacodynamic Evaluation of Compound 2, Compound 250, and Compound 253 in a Subcutaneous Xenograft Model of Human Colon Cancer HCT-116 Cells in BALB/c Female Nude Mice
Human colon cancer HCT116 cells were cultured in vitro as monolayers in McCoys 5a medium supplemented with 10% fetal bovine serum and 1% penicillin/streptomycin/amphotericin B at 37 °C in a 5% CO2 incubator. Cells were routinely passaged twice a week using trypsin-EDTA digestion. When cells reached 80%-90% confluence and the required cell number was achieved, cells were harvested. HCT116 cells (0.1 mL, 5×10^6 cells) were subcutaneously inoculated into the right dorsal region near the upper forelimb of each mouse (BALB/c nude mice, female, 6-8 weeks old). Treatment was initiated when the average tumor volume reached approximately 158 mm^3. Tumor volume was measured twice weekly. At the end of the experiment, the tumor growth inhibition rate (TGI) was calculated as: TGI (%) = [1 - (average tumor volume at the end of treatment in a particular group - average tumor volume at the start of treatment in that group) / (average tumor volume at the end of treatment in the vehicle control group - average tumor volume at the start of treatment in the vehicle control group)] × 100%.
(§1) Experimental Groups and Dosing Regimen:
• 1, Vehicle control group • 2, Compound 2, 5 mg/kg, IV, BIW×3W • 3, Compound 250, 5 mg/kg, IV, BIW×3W • 4, Compound 253, 5 mg/kg, IV, BIW×3W

[2] = Pharmacokinetic study in mice, plasma concentrations by LC-MS/MS; conditions: mouse, in vivo
[3] = tested on: Human colon cancer CR00090 cells; experiment: CR00090 human colon cancer model (subcutaneous); format: in vivo, NPSG mice; conditions: day 28 post-treatment, 5 mg/kg, IV, BIW×4W
Experimental: Test Example 5: Pharmacodynamic Evaluation of Compound 117, Compound 250, and Compound 253 in the CR00090 Human Colon Cancer Model
Human colon cancer CR00090 cells were thawed, counted, and mixed with Matrigel at a 1:1 ratio. Then, 0.1 mL (5×10^5 cells) of CR00090 cells were subcutaneously inoculated into the right dorsal region near the upper forelimb of each mouse (NPSG mice, female, 6-8 weeks old). Treatment was initiated when the average tumor volume reached approximately 84 mm^3. Tumor volume was measured twice weekly. At the end of the experiment, the tumor growth inhibition rate (TGI) was calculated as: TGI (%) = [1 - (average tumor volume at the end of treatment in a particular group - average tumor volume at the start of treatment in that group) / (average tumor volume at the end of treatment in the vehicle control group - average tumor volume at the start of treatment in the vehicle control group)] × 100%.
as §1
• 1, Vehicle control group • 2, Compound 117, 5 mg/kg, IV, BIW×4W • 3, Compound 250, 5 mg/kg, IV, BIW×4W • 4, Compound 253, 5 mg/kg, IV, BIW×4W

| Structure (SMILES) | TGI [1] [%] | tumor volume ([1]; vehicle control 1146 mm^3) [mm^3] | AUC(0-t) at 24 h ([2]; iv, 2 mg/kg) [ng·h/mL] | Cmax ([2]; iv, 2 mg/kg) [ng/mL] | clearance ([2]; iv, 2 mg/kg) [mL/min/kg] | half-life ([2]; iv, 2 mg/kg) [min] | AUC(0-t) at 24 h ([2]; po, 20 mg/kg) [ng·h/mL] | Cmax ([2]; po, 20 mg/kg) [ng/mL] | Tmax ([2]; po, 20 mg/kg) [min] | bioavailability ([2]; po, 20 mg/kg) [%] | half-life ([2]; po, 20 mg/kg) [min] | TGI [3] [%] | tumor volume ([3]; vehicle control 1093 mm^3) [mm^3] | AUC(0-t) at 24 h ([2]; iv, 1 mg/kg) [ng·h/mL] | Cmax ([2]; iv, 1 mg/kg) [ng/mL] | clearance ([2]; iv, 1 mg/kg) [mL/min/kg] | half-life ([2]; iv, 1 mg/kg) [min] |
| --- | --- | --- | --- | --- | --- | --- | --- | --- | --- | --- | --- | --- | --- | --- | --- | --- | --- |
| CC[C@@]1(O)C(=O)OCc2c1cc1n(c2=O)Cc2c-1c(=O)c1cc(F)cc(C)c1n2C [Example 2, (S)-4-ethyl-8-fluoro-4-hydroxy-10,11-dimethyl-1,12-dihydro-14H-pyrano[3,4:6,7]indolizino[2,1-b]quinoline-3,6,14(4H,11H)-trione] | 81.9 | 335 | 323 | 604 | 110 | 69.6 | 911 | 956 | 25.2 | 28.5 | 135 | – | – | – | – | – | – |
| CC[C@@]1(O)C(=O)OCc2c1cc1n(c2=O)Cc2c-1c(=O)c1cc(F)ccc1n2CCN(C)C1CCCC1 [Example 117] | – | – | – | – | – | – | – | – | – | – | – | 82.4 | 262 | 38.7 | 107 | 439 | 14.1 |
